The target of series [1] is T1, α1β2γ2S GABAA-R (Rattus norvegicus, UniProt P18508+P62813). In words: cell-based. As for the experimental part:
(§1) cRNAs encoding GABAA-R α1, α2, α3, α5, β2 and γ2S subunits were injected into oocytes from Xenopus laevis. […] GABA (Sigma) was prepared as a 1 M stock solution in ND96. Microelectrodes of 1–3 MΩ when filled with 3 M KCl were used to record from oocytes in a recording chamber continuously perfused with ND-96 buffer solution. During data acquisition, oocytes were clamped at a holding potential of -70 mV. Drugs were applied by perfusion at a rate of approximately 50 μl sec^-1 for 20 s followed by a 120 s wash. […] All experiments were performed at room temperature (22–24°C).
(§2) GABA concentration-response data was obtained for each subunit combination, and the GABA EC10 was determined by nonlinear regression using the logistic equation. This concentration of GABA was used for modulation studies. Peak current measurements were normalized and expressed as a fraction of the peak control current measurements. Control responses to an EC10 concentration of GABA were re-determined after every 2 – 4 applications of modulator + GABA. […] Potentiation data from each oocyte was fitted to the equation Potentiation = Emax × [Drug]/([Drug + EC50) by non-linear regression (Prism, Graph-Pad software). […] Given the lack of consistency of this possible high affinity effect, we have omitted it in fitting our concentration-effect curves. The choice of fitting to a monophasic or biphasic equation had only a small effect on the EC50 for the major component of modulation.
(§3) Rat GABAA-Rs consisting of α1β2γ2S, α2β2γ2S, α3β2γ2S and α5β2γ2S subunits were expressed in Xenopus oocytes. […] Higher concentrations (in parentheses) were excluded from the fit due to a decline in potentiation at higher concentrations.

The target in series [2] is T2, α2β2γ2S GABAA-R (Rattus norvegicus, UniProt P18508+P23576). The series is described as follows: cell-based. Here is the method:
as §1, §2, §3

The target of series [3] is T3, α5β2γ2S GABAA-R (Rattus norvegicus, UniProt P18508+P19969). The series is described as follows: cell-based. Here is the method:
as §1, §2, §3

Series [4] deals with T4, α3β2γ2S GABAA-R (Rattus norvegicus, UniProt P18508+P20236). The series is described as follows: cell-based. It counts as cell-based. Here is the method: as §1, §2, §3
Series [5] addresses T1, α1β2γ2S GABAA-R. The series is described as follows: biochemical. The format is binding. As for the experimental part: (§4) HEK293 cells (CRL 1573, American type Culture Collection, Rockville, MD, USA) were cultured in Dulbecco's modified Eagle's medium (D-MEM, Invitrogen, Carlsbad, CA, USA) supplemented with 10% fetal bovine serum (Invitrogen, Carlsbad, CA, USA) and 1% MEM Non-Essential Amino Acids Solution (Invitrogen, Carlsbad, CA, USA). cDNAs encoding rat GABAA-R subunits were in the following vectors: α1 and α5 in pRc/CMV, α2, α3, γ2S and γ3 in pcDNA3 and β2 in pcDNA1. The cells were transiently transfected (5 μg of each cDNA per 100 mm dish) using FuGene™ (Roche Diagnostics Corporation) at a 3:1 FuGene:DNA ratio. […] Forty-eight hours after transfection, cells were washed with ice-cold PBS, harvested and homogenized. Cell homogenates were centrifuged (100,000 g, 25 min) and washed three times by homogenization in ice-cold PBS buffer followed by centrifugation at 100,000 g for 25 min. The final pellets were stored at -20°C until needed.
(§5) The samples were then diluted with 5 ml of ice-cold buffer and filtered under vacuum through glass-fiber filters (GF/B Whatman). Filters were washed 3 times with 5 ml of buffer and the radioactivity was quantitated by liquid scintillation counting in 5 ml of Ecolite scintillation fluid (ICN). Non-specific binding determined in the presence of 100 μM Ro 15–1788 (Sigma-Aldrich) was subtracted from total binding to calculate specific binding. Data were analyzed by non-linear regression (Prism, Graph-Pad software).

Another series has as its target T5, α1β2γ3 GABAA-R (Rattus norvegicus, UniProt P28473+P62813).
T5 construct: expressed in transfected cells; host or cells: HEK293 (CRL 1573), transient transfection
In words: biochemical. The format is binding. Here is the method: as §4, §5

In series [6] the target is T2, α2β2γ2S GABAA-R. The series is described as follows: biochemical. The format is binding. As for the experimental part:
as §4, §5

The target in the next series is T6, α2β2γ3 GABAA-R (Rattus norvegicus, UniProt P23576+P28473).
T6 construct: expressed in transfected cells; host or cells: HEK293 (CRL 1573), transient transfection
In words: biochemical. The format is binding. Here is the method: as §4, §5

The target in series [7] is T4, α3β2γ2S GABAA-R. The series is described as follows: biochemical. It counts as binding. Here is the method: as §4, §5
For series [8], the target named is T3, α5β2γ2S GABAA-R. The series is described as follows: biochemical. It counts as binding. As for the experimental part: as §4, §5
A further series deals with T7, α5β2γ3 GABAA-R (Rattus norvegicus, UniProt P19969+P28473).
T7 construct: expressed in transfected cells; host or cells: HEK293 (CRL 1573), transient transfection
The series is described as follows: biochemical. The format is binding. Here is the method:
as §4, §5

A short description of a further series: in vivo. The format is in vivo, rat. The conditions noted are these: in vivo; rat, one animal excluded from the plot, 10 min after oral 5 mg/kg ocinaplon, may have regurgitated part of the dose; read-out: blood level. As for the experimental part:
At 1 h, corresponding to the time at which the anticonflict effect of ocinaplon was evaluated, the plasma concentration of DOV 315,090 is ~38% of the concentration of parent compound.
Figure 2 Pharmacokinetics of ocinaplon and DOV 315,090. Blood levels of ocinaplon (●,○) and DOV 315090 (▲,△) were determined at various times after i.v. (●,▲) or oral (○,△) administration of 5 mg/kg ocinaplon to rats. […] This animal may have regurgitated a portion of the dose (of the suspension).

Setting [9] is: [3H]Ro15-1788 displacement, n = 3, read-out: IC50.
Setting [10] is: mean ± SEM, n = 3, read-out: pIC50 (converted).

Where two headings read alike, the source gives them in different places.

T4 sequence (P20236 29-493): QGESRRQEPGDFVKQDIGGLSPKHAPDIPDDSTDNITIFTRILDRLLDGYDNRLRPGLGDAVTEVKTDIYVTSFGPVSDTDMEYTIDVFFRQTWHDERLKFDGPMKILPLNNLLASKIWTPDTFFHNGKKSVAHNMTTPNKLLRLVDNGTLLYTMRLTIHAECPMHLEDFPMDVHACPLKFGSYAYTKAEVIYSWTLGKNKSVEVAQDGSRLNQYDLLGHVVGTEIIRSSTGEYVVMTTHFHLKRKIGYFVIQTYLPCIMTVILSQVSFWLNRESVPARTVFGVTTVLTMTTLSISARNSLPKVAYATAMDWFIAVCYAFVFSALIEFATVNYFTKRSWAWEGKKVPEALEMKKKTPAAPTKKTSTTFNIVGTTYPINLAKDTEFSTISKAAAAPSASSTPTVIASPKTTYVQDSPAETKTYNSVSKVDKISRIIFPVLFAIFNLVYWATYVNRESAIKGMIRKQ
T4 sequence (P63138 25-474 partner limits assumed): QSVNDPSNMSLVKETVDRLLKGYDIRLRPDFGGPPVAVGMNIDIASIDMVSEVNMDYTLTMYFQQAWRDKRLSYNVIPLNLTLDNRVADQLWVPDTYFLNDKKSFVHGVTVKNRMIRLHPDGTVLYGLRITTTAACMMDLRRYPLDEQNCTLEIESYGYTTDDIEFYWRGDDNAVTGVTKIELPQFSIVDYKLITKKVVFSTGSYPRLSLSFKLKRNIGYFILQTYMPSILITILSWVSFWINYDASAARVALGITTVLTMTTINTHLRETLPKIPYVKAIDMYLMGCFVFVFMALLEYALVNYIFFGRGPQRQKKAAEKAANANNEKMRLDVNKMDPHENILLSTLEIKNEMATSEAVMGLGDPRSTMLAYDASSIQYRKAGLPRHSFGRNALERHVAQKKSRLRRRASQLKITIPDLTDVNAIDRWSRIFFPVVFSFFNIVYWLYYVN
T4 sequence (P18508 39-466): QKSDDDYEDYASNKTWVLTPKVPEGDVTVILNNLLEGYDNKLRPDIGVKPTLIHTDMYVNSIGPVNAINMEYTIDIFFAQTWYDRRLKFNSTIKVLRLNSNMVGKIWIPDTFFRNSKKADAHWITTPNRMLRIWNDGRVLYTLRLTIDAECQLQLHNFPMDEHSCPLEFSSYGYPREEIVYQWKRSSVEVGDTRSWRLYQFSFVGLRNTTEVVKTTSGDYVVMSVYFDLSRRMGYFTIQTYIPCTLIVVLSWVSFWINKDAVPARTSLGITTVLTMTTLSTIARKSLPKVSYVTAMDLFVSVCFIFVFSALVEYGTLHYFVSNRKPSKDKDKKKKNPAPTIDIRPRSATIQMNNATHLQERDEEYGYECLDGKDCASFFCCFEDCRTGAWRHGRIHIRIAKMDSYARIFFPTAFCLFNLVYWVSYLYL
T2 sequence (P23576 29-451): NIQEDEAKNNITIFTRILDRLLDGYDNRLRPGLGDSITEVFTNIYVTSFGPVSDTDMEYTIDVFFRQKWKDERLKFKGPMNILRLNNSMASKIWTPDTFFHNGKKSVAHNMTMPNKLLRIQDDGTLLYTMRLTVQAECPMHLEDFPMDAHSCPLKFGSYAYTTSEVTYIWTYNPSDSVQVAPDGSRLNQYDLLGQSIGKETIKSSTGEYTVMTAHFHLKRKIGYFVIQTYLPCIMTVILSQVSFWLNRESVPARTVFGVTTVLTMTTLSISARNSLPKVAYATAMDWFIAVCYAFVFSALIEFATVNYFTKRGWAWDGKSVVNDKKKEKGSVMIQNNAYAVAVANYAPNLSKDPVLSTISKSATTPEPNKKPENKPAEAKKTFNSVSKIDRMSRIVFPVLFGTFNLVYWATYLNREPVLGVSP
T2 sequence (P63138 25-474 partner limits assumed): as the sequence (P63138 25-474 partner limits assumed) above
T2 sequence (P18508 39-466): as the sequence (P18508 39-466) above
T6 sequence (P23576 29-451): as the sequence (P23576 29-451) above
T6 sequence (P63138 25-474 partner limits assumed): as the sequence (P63138 25-474 partner limits assumed) above
T6 sequence (P28473 18-467): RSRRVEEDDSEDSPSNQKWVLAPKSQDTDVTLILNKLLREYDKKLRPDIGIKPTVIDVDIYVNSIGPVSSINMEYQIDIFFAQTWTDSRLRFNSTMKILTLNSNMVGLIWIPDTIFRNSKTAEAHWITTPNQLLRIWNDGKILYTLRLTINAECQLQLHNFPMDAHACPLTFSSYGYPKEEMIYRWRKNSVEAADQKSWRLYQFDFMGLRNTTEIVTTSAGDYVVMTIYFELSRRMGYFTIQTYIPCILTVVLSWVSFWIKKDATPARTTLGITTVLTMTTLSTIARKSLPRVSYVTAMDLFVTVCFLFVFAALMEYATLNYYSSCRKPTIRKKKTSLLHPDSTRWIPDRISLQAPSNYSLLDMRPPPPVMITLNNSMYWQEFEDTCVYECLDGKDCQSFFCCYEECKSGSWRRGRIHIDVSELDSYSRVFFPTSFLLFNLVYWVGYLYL
T5 sequence (P62813 28-455): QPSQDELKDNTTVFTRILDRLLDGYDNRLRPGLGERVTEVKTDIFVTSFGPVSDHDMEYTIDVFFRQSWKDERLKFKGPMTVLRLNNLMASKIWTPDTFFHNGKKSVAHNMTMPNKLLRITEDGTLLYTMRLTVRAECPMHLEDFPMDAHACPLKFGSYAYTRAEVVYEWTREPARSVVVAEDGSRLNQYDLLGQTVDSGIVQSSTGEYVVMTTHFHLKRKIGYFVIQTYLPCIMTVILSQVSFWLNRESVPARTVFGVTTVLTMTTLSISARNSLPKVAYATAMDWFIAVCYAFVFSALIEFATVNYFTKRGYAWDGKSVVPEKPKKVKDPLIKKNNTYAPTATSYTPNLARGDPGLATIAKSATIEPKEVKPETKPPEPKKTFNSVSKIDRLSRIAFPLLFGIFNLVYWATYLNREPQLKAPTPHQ
T5 sequence (P63138 25-474 partner limits assumed): as the sequence (P63138 25-474 partner limits assumed) above
T5 sequence (P28473 18-467): as the sequence (P28473 18-467) above
T1 sequence (P62813 28-455): as the sequence (P62813 28-455) above
T1 sequence (P63138 25-474 partner limits assumed): as the sequence (P63138 25-474 partner limits assumed) above
T1 sequence (P18508 39-466): as the sequence (P18508 39-466) above
T3 sequence (P19969 32-464 limits assumed): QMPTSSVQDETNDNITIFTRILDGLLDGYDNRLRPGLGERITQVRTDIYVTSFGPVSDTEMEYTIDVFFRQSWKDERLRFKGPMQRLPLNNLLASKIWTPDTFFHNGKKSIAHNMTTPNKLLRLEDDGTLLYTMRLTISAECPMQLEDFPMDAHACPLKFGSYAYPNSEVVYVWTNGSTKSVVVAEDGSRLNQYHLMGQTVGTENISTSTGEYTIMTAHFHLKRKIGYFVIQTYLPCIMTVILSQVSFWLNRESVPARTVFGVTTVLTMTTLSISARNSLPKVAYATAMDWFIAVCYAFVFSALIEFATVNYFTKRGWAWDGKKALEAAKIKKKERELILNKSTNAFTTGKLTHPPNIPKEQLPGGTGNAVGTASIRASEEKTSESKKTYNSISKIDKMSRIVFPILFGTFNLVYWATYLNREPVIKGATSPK
T3 sequence (P63138 25-474 partner limits assumed): as the sequence (P63138 25-474 partner limits assumed) above
T3 sequence (P18508 39-466): as the sequence (P18508 39-466) above
T7 sequence (P19969 32-464 limits assumed): as the sequence (P19969 32-464 limits assumed) above
T7 sequence (P63138 25-474 partner limits assumed): as the sequence (P63138 25-474 partner limits assumed) above
T7 sequence (P28473 18-467): as the sequence (P28473 18-467) above

On to `CN1C(=O)CN=C(c2ccccc2)c2cc(Cl)ccc21` [diazepam, reference compound], for which the maximum response (Emax) was found to be 144 ± 8% on α1β2γ2S GABAA-R [1], 157 ± 14% on α2β2γ2S GABAA-R [2], 224 ± 24% at α5β2γ2S GABAA-R [3] and 232 ± 31% on α3β2γ2S GABAA-R [4].
Regarding `O=C(c1ccccn1)c1cnn2c(-c3ccncc3)ccnc12` [ocinaplon, 2-pyridinyl [7-(4-pyridinyl)pyrazolo[1,5-a]pyrimidin-3-yl]methanone], the IC50 at α1β2γ2S GABAA-R [5] (setting [9]) is 6.3 µM; at α1β2γ3 GABAA-R ([3H]Ro15-1788 displacement, α1β2γ3, n = 3, read-out: IC50), 2.3 µM; at α1β2γ3 GABAA-R (α1β2γ3, mean ± SEM, n = 3, read-out: pIC50 (converted)), 2.24 µM; on α2β2γ2S GABAA-R [6] (setting [10]), 24 µM; at α2β2γ3 GABAA-R ([3H]Ro15-1788 displacement, α2β2γ3, n = 3, read-out: IC50), 20 µM; on α2β2γ3 GABAA-R (α2β2γ3, mean ± SEM, n = 3, read-out: pIC50 (converted)), 18.2 µM. For the same compound, the IC50 is 7.7 µM on α3β2γ2S GABAA-R [7] (setting [9]); 7.59 µM at α3β2γ2S GABAA-R [7] (setting [10]); 9.6 µM on α5β2γ2S GABAA-R [8] (setting [9]); 10 µM on α5β2γ3 GABAA-R ([3H]Ro15-1788 displacement, α5β2γ3, n = 3, read-out: IC50); 9.77 µM on α5β2γ3 GABAA-R (α5β2γ3, mean ± SEM, n = 3, read-out: pIC50 (converted)). In addition, the “IC50/DZ IC50” value at α1β2γ2S GABAA-R [5] (ratio to diazepam IC50) was 218; at α1β2γ3 GABAA-R (α1β2γ3, ratio to diazepam IC50), 10.5; on α2β2γ2S GABAA-R [6] (ratio to diazepam IC50), 759; at α2β2γ3 GABAA-R (α2β2γ3, ratio to diazepam IC50), 115; at α3β2γ2S GABAA-R [7] (ratio to diazepam IC50), 158; at α5β2γ2S GABAA-R [8] (ratio to diazepam IC50) it was 355. In addition, on α5β2γ3 GABAA-R (α5β2γ3, ratio to diazepam IC50), the “IC50/DZ IC50” value was 120. Besides, the Emax turned out to be 132 ± 8% on α1β2γ2S GABAA-R [1], 150 ± 6% on α2β2γ2S GABAA-R [2], 84 ± 4% at α5β2γ2S GABAA-R [3] and 181 ± 18% at α3β2γ2S GABAA-R [4]. The EC50 was 2.69 µM on α1β2γ2S GABAA-R [1] (α1β2γ2S, GABA EC10, mean ± SEM, read-out: pEC50 (converted)); 2.93 µM at α1β2γ2S GABAA-R [1] (α1β2γ2S, GABA EC10, number of oocytes in parentheses, read-out: EC50); 9.12 µM at α2β2γ2S GABAA-R [2] (α2β2γ2S, GABA EC10, number of oocytes in parentheses, read-out: EC50); 3.31 µM on α5β2γ2S GABAA-R [3] (α5β2γ2S, GABA EC10, mean ± SEM, read-out: pEC50 (converted)); 3.5 µM at α5β2γ2S GABAA-R [3] (α5β2γ2S, GABA EC10, number of oocytes in parentheses, read-out: EC50); 6.92 µM at α3β2γ2S GABAA-R [4] (α3β2γ2S, GABA EC10, mean ± SEM, read-out: pEC50 (converted)). In addition, the EC50 at α3β2γ2S GABAA-R [4] (α3β2γ2S, GABA EC10, number of oocytes in parentheses, read-out: EC50) turned out to be 8.01 µM. The “EC50/DZ EC50” value is given as 77 on α1β2γ2S GABAA-R [1] (α1β2γ2S, ratio to diazepam EC50); 350 at α2β2γ2S GABAA-R [2] (α2β2γ2S, ratio to diazepam EC50); 139 at α5β2γ2S GABAA-R [3] (α5β2γ2S, ratio to diazepam EC50); 87 on α3β2γ2S GABAA-R [4] (α3β2γ2S, ratio to diazepam EC50). For the same compound, the “Emax/DZ Emax” value at α1β2γ2S GABAA-R [1] (α1β2γ2S, ratio to diazepam Emax) came to 0.91; at α2β2γ2S GABAA-R [2] (α2β2γ2S, ratio to diazepam Emax), 0.95; on α5β2γ2S GABAA-R [3] (α5β2γ2S, ratio to diazepam Emax), 0.37; at α3β2γ2S GABAA-R [4] (α3β2γ2S, ratio to diazepam Emax) it was 0.78. Besides, the concentration at 10 min in the series “in vivo” came out at 470 ng/mL.

These data come from paper PMC2529273, “Pharmacological Properties of DOV 315,090, an ocinaplon metabolite” (BMC Pharmacology, 2008).
